Literature values, collected in patent publication US20220347157A1, “SUSTAINED RELEASE PHARMACEUTICAL COMPOSITIONS COMPRISING (1R, 5S)-1-(NAPHTHALEN-2-YL)-3-AZABICYCLO[3.1.0]HEXANE” (OTSUKA AMERICA PHARMACEUTICAL, INC., priority 2013, published 2022).

How the values were obtained:
[1] = target: serotonin reuptake (5-HT) (Homo sapiens, UniProt P31645); details: fraction of the potency towards norepinephrine reuptake
dopamine reuptake (DA) = dopamine reuptake (DA) (Homo sapiens, UniProt Q01959); details: fraction of the potency towards norepinephrine reuptake
Sequence of dopamine reuptake (DA) (Q01959 whole entry): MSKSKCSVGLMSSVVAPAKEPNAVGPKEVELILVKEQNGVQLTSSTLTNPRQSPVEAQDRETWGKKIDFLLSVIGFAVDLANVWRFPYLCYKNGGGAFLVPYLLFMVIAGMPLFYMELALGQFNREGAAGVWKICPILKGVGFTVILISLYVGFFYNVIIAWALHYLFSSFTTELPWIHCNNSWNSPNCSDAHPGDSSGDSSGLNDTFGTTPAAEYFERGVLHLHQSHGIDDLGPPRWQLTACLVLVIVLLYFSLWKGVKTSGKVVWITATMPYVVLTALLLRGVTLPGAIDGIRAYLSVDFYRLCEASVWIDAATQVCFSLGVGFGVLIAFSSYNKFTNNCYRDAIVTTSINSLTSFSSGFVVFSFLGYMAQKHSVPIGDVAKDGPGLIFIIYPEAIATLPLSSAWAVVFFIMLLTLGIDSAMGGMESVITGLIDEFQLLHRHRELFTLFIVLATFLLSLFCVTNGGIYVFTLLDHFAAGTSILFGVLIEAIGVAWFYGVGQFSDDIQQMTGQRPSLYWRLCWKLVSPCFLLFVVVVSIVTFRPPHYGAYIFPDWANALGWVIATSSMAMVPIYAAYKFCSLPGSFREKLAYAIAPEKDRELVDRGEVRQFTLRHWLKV

Sequence of serotonin reuptake (5-HT) (P31645 whole entry): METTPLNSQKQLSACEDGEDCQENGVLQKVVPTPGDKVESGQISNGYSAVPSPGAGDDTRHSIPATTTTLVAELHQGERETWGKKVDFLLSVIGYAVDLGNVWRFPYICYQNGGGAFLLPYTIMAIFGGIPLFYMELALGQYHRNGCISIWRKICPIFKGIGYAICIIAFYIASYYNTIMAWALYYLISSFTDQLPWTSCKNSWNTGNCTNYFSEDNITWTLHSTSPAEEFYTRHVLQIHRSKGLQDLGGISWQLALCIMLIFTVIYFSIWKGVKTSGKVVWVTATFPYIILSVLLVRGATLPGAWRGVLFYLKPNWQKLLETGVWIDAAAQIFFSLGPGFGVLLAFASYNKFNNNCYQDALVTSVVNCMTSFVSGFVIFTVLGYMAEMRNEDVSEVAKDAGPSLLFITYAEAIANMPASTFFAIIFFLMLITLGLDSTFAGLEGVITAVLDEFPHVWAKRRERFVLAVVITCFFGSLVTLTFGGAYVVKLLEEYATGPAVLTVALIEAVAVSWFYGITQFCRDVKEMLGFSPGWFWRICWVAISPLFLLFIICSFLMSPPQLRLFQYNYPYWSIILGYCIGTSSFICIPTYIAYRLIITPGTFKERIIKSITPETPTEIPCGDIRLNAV

In the case of `c1ccc2cc([C@]34CNC[C@H]3C4)ccc2c1` [(1R,5S)-1-(naphthalen-2-yl)-3-azabicyclo[3.1.0]hexane], the “potency towards serotonin reuptake (5-HT) relative to norepinephrine reuptake (NE)” value [1] is given as “one-fourteenth as much” and the “potency towards dopamine reuptake (DA) relative to norepinephrine reuptake (NE)” value (dopamine reuptake (DA)) is given as “one-sixth as much”.
